Assay results from the supplement of paper PMC10307832.

Compound: C1COCCN1CC2=CC(=O)C(=CO2)OCCCCCSC3=C4C=CC(=CC4=NC=C3)C(F)(F)F [EHT 1864] + COc1cc2c(Oc3ccc(NC(=O)C4(C(=O)Nc5ccc(F)cc5)CC4)cc3F)ccnc2cc1OCCCN1CCOCC1 [Foretinib] (partner 0.25 µM)
Experiment: relative viability (nuclei count vs DMSO), 5 days (fraction); higher = more cells survive
Outline: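 Lung cancer cell lines in 1536-well plates got either a single drug or a fixed anchor-drug dose together with five library-drug doses (not always all listed) in √10 steps, by pin tool, on the day after seeding. Nuclei were counted after 5 days, and relative viability is the treated-to-vehicle ratio of nuclei counts. Values are medians of duplicate plates.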

Cell Line | relative viability (first compound 0.04 µM) | relative viability (first compound 0.1265 µM) | relative viability (first compound 0.4 µM) | relative viability (first compound 1.265 µM) | relative viability (first compound 4 µM)
LCLC-97TM1 | 0.848 | 0.842 | 0.948 | 0.939 | 0.949
HARA | 0.889 | 0.838 | 0.991 | 0.932 | 0.98
HCC-78 | 0.578 | 0.474 | 0.538 | 0.606 | 0.633
NCI-H1666 | 0.999 | 0.917 | 0.894 | 0.948 | 0.998
NCI-H2347 | 0.974 |  | 0.862 | 0.363 | 0.809
NCI-H838 | 0.88 | 0.864 | 1.05 | 0.95 | 1.01
NCI-H2023 | 0.787 | 0.855 | 0.957 | 0.876 | 0.778
201T | 0.964 | 1.05 | 1.16 | 0.99 | 1.08
NCI-H1915 | 1.07 |  | 1 | 1.07 | 1.08
NCI-H2009 | 1.17 | 1.12 | 1.22 | 1.2 | 1.07
BEN | 0.702 | 0.585 | 0.827 | 0.484 | 0.771
PC-14 | 0.997 | 0.906 | 0.994 | 0.932 | 0.878
NCI-H1793 | 0.604 |  | 0.667 |  | 0.789
NCI-H727 | 0.905 | 0.875 | 0.724 | 0.95 | 0.928
NCI-H1355 | 0.972 | 0.815 | 0.921 | 0.95 | 0.966
NCI-H1975 | 0.933 | 0.98 | 0.883 |  | 0.876
LK-2 | 1.14 |  | 0.919 | 0.982 | 1.35
NCI-H661 | 1.03 | 0.956 | 0.993 | 0.986 | 0.817
NCI-H2342 | 1.04 | 0.903 | 1.07 | 0.963 | 1.06
HCC-366 | 0.914 | 0.859 | 0.888 | 0.891 | 0.963
HOP-62 | 1.02 |  | 1.03 | 0.991 | 1.13
NCI-H2170 | 1.01 | 1.01 | 0.998 | 0.943 | 1
SW 1573 | 0.805 | 0.722 | 0.816 | 0.746 | 0.896
LU99A | 0.818 | 0.796 | 0.835 | 0.805 | 0.749
NCI-H647 | 1.19 | 0.977 | 1.37 | 1.27 | 1.26

Cell Line | relative viability (first compound 0.04 µM) | relative viability (first compound 0.1265 µM) | relative viability (first compound 0.4 µM) | relative viability (first compound 1.265 µM) | relative viability (first compound 4 µM)
A-427 | 1.03 | 0.942 | 0.986 | 1.05 | 0.968
COR-L 105 | 0.959 | 1.02 | 1.25 | 1.19 | 0.917
NCI-H441 | 0.953 | 1.03 | 1 | 0.942 | 0.984
NCI-H2126 | 1.17 | 1.22 | 1.19 | 1.22 | 1.22
EBC-1 | 0.0988 | 0.119 | 0.116 | 0.115 | 0.0993
NCI-H460 | 1 | 0.921 | 1.01 | 1.01 | 0.853
SK-LU-1 | 0.843 | 0.772 | 0.779 | 0.775 | 0.746
NCI-H322M | 0.898 | 0.948 | 0.995 | 0.895 | 1.06
EKVX | 1.09 | 0.758 | 0.715 | 0.661 | 0.592
NCI-H1734 | 0.911 |  | 0.706 | 0.961 | 0.826
SW 900 | 0.524 |  | 0.862 | 0.89 | 0.687
ABC-1 | 1.22 | 1.06 | 1.03 | 0.954 | 0.834
NCI-H520 | 0.56 | 0.734 | 0.736 | 0.697 | 0.744
EPLC-272H | 0.684 | 0.575 | 0.694 | 0.887 | 0.875
UMC-11 | 0.935 | 0.962 |  | 1.07 | 1.11
NCI-H1993 | 0.741 |  | 0.748 | 0.75 | 0.744
NCI-H596 | 0.836 | 0.701 | 0.752 | 0.745 | 0.821
NCI-H1944 | 0.893 |  | 0.882 | 0.89 | 0.701
NCI-H1563 | 0.962 | 0.896 | 0.978 | 0.857 | 0.908
NCI-H1395 | 1.03 | 0.924 | 0.897 | 1.02 | 0.859
NCI-H1299 | 1.05 | 1.09 | 1.06 | 1.04 | 1.07
HCC-827 | 0.985 | 0.965 | 1.01 | 0.977 | 0.928
ChaGo-K-1 | 0.858 | 0.888 | 0.809 | 0.895 | 0.814
NCI-H2228 | 0.81 | 0.758 | 0.904 | 0.836 | 0.9
NCI-H358 | 0.689 | 0.613 | 0.848 | 0.637 | 0.621

Cell Line | relative viability (first compound 0.04 µM) | relative viability (first compound 0.1265 µM) | relative viability (first compound 0.4 µM) | relative viability (first compound 1.265 µM) | relative viability (first compound 4 µM)
EMC-BAC-2 | 0.967 | 1.06 | 1.01 | 1.01 | 0.951
A549 | 0.995 | 0.986 | 0.978 | 0.815 | 0.714
NCI-H23 | 0.92 | 0.959 | 0.889 | 0.956 | 0.923
RERF-LC-KJ | 1.01 | 0.838 | 0.834 | 0.896 | 0.893
SK-MES-1 | 0.951 | 0.866 | 1.06 | 1.11 | 0.799
LC-2-ad | 0.859 |  | 0.905 | 1.01 | 0.962
HCC-15 | 0.976 |  | 0.994 | 0.882 | 1.01
NCI-H2405 | 1.05 | 1.05 | 1.07 | 0.999 | 1.13
LXF-289 | 0.976 | 0.961 | 0.947 | 0.925 | 0.851
CAL-12T | 1 | 1.05 | 1 | 0.852 | 0.908
COR-L23 | 1.01 | 0.922 | 1 | 0.948 | 0.86
NCI-H1755 | 0.914 | 0.872 | 0.876 | 0.844 | 0.803
NCI-H1437 | 1.31 | 1.22 | 1.2 | 1.03 | 0.824
NCI-H2085 | 1.13 |  | 0.9 | 0.92 | 0.89
IA-LM | 1.21 |  | 1.09 | 1.03 | 0.901
H3255 | 0.79 | 0.818 | 0.903 | 0.844 | 0.978
NCI-H650 | 0.99 | 0.859 | 0.97 | 1.03 | 0.99
LCLC-103H | 0.791 | 0.618 | 0.736 | 0.637 | 0.733
LOU-NH91 | 0.956 | 0.874 | 0.922 | 0.96 | 0.814
NCI-H1650 |  |  | 1.18 | 0.896 | 0.92
NCI-H3122 | 0.938 | 0.983 | 0.961 | 0.982 | 0.885
PC-3 [JPC-3] | 1.04 | 0.887 | 0.943 | 0.968 | 0.936
Calu-6 | 0.932 | 0.853 | 0.846 | 0.913 | 0.87
NCI-H1651 | 0.836 | 0.757 | 0.845 | 0.691 | 0.827
NCI-H2087 | 1.01 |  | 1 | 1.01 | 0.845
